Tested on: 817829-284-R-J1-PDC complex spheroid viability
Assay: Anticancer human tumor 817829-284-R-J1-PDC patient-derived colon adenocarcinoma cell line growth inhibition [POLQ]
Conditions: for IC50: curve of first compound; for viability, T/C: stronger effect = lower value
Summary of the method: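 Complex spheroid viability model combining PDC tumour cells with endothelial (HUVEC) and MSC stromal cells. Novobiocin, ART-558 or RP6685 were tested singly and in combination with standard and investigational anticancer drugs. Each was titrated in half-log steps from near clinical Cmax, or from 10 microM where Cmax was unknown.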

[1] = second compound 0.0316 µM, first compound 0.0316 µM
[2] = second compound 0.0316 µM, first compound 0.1 µM
[3] = second compound 0.0316 µM, first compound 0.316 µM
[4] = second compound 0.0316 µM, first compound 1 µM
[5] = second compound 0.0316 µM, first compound 3.16 µM
[6] = second compound 0.0316 µM, first compound 10 µM
[7] = second compound 0.1 µM, first compound 0.0316 µM
[8] = second compound 0.1 µM, first compound 0.1 µM
[9] = second compound 0.1 µM, first compound 0.316 µM
[10] = second compound 0.1 µM, first compound 1 µM
[11] = second compound 0.1 µM, first compound 3.16 µM
[12] = second compound 0.1 µM, first compound 10 µM
[13] = second compound 0.316 µM, first compound 0.0316 µM
[14] = second compound 0.316 µM, first compound 0.1 µM
[15] = second compound 0.316 µM, first compound 0.316 µM
[16] = second compound 0.316 µM, first compound 1 µM
[17] = second compound 0.316 µM, first compound 3.16 µM
[18] = second compound 0.316 µM, first compound 10 µM
[19] = second compound 1 µM, first compound 0.0316 µM
[20] = second compound 1 µM, first compound 0.1 µM
[21] = second compound 1 µM, first compound 0.316 µM
[22] = second compound 1 µM, first compound 1 µM
[23] = second compound 1 µM, first compound 3.16 µM
[24] = second compound 1 µM, first compound 10 µM
[25] = second compound 3.16 µM, first compound 0.0316 µM
[26] = second compound 3.16 µM, first compound 0.1 µM
[27] = second compound 3.16 µM, first compound 0.316 µM
[28] = second compound 3.16 µM, first compound 1 µM
[29] = second compound 3.16 µM, first compound 3.16 µM
[30] = second compound 3.16 µM, first compound 10 µM
[31] = second compound 10 µM, first compound 0.0316 µM
[32] = second compound 10 µM, first compound 0.1 µM
[33] = second compound 10 µM, first compound 0.316 µM
[34] = second compound 10 µM, first compound 1 µM
[35] = second compound 10 µM, first compound 3.16 µM
[36] = second compound 10 µM, first compound 10 µM
[37] = second compound 0.0316 µM, first compound 0.00316 µM
[38] = second compound 0.0316 µM, first compound 0.01 µM
[39] = second compound 0.1 µM, first compound 0.00316 µM
[40] = second compound 0.1 µM, first compound 0.01 µM
[41] = second compound 0.316 µM, first compound 0.00316 µM
[42] = second compound 0.316 µM, first compound 0.01 µM
[43] = second compound 1 µM, first compound 0.00316 µM
[44] = second compound 1 µM, first compound 0.01 µM
[45] = second compound 3.16 µM, first compound 0.00316 µM
[46] = second compound 3.16 µM, first compound 0.01 µM
[47] = second compound 10 µM, first compound 0.00316 µM
[48] = second compound 10 µM, first compound 0.01 µM
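Further: spheroids exposed to compounds for 7 days.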
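Wherever viability, T/C is given: 100% = DMSO vehicle-treated spheroids.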

SMILES: COc1cc2cc(C(=O)CCC(=O)O)sc2cc1OC + Cc1cccc(N(C)C(=O)C2C(O)CCN2c2nc(C)cc(C(F)(F)F)c2C#N)c1
- IC50 (second compound 0.0316 µM): > 10000 nM
- IC50 (second compound 0.1 µM): > 10000 nM
- IC50 (second compound 0.316 µM): > 10000 nM
- IC50 (second compound 1 µM): > 10000 nM
- IC50 (second compound 3.16 µM): > 10000 nM
- IC50 (second compound 10 µM): > 10000 nM
- viability, T/C [1]: 100%
- viability, T/C [2]: 93.1%
- viability, T/C [3]: 89%
- viability, T/C [4]: 88.5%
- viability, T/C [5]: 114%
- viability, T/C [6]: 96.2%
- viability, T/C [7]: 113%
- viability, T/C [8]: 97%
- viability, T/C [9]: 99.5%
- viability, T/C [10]: 105%
- viability, T/C [11]: 98.7%
- viability, T/C [12]: 102%
- viability, T/C [13]: 101%
- viability, T/C [14]: 90.5%
- viability, T/C [15]: 99%
- viability, T/C [16]: 108%
- viability, T/C [17]: 107%
- viability, T/C [18]: 108%
- viability, T/C [19]: 102%
- viability, T/C [20]: 88.2%
- viability, T/C [21]: 96.7%
- viability, T/C [22]: 116%
- viability, T/C [23]: 105%
- viability, T/C [24]: 104%
- viability, T/C [25]: 91.1%
- viability, T/C [26]: 111%
- viability, T/C [27]: 117%
- viability, T/C [28]: 93.8%
- viability, T/C [29]: 100%
- viability, T/C [30]: 96.9%
- viability, T/C [31]: 87.7%
- viability, T/C [32]: 86.8%
- viability, T/C [33]: 112%
- viability, T/C [34]: 89.6%
- viability, T/C [35]: 109%
- viability, T/C [36]: 89.6%

SMILES: COc1ccc([C@@H](O)c2cc(-c3ncnc4cc(N5CCOCC5)ccc34)c(F)cc2Cl)nn1 + Cc1cccc(N(C)C(=O)C2C(O)CCN2c2nc(C)cc(C(F)(F)F)c2C#N)c1
- IC50 (second compound 0.0316 µM): 715 nM
- IC50 (second compound 0.1 µM): 719 nM
- IC50 (second compound 0.316 µM): 932 nM
- IC50 (second compound 1 µM): 1220 nM
- IC50 (second compound 3.16 µM): 474 nM
- IC50 (second compound 10 µM): 751 nM
- viability, T/C [1]: 112%
- viability, T/C [2]: 112%
- viability, T/C [3]: 72%
- viability, T/C [4]: 42.3%
- viability, T/C [5]: 22.3%
- viability, T/C [6]: 17.9%
- viability, T/C [7]: 103%
- viability, T/C [8]: 80.3%
- viability, T/C [9]: 66.9%
- viability, T/C [10]: 40.8%
- viability, T/C [11]: 32.7%
- viability, T/C [12]: 19.9%
- viability, T/C [13]: 107%
- viability, T/C [14]: 74.6%
- viability, T/C [15]: 102%
- viability, T/C [16]: 47.1%
- viability, T/C [17]: 28.3%
- viability, T/C [18]: 15.5%
- viability, T/C [19]: 111%
- viability, T/C [20]: 105%
- viability, T/C [21]: 92.2%
- viability, T/C [22]: 54.5%
- viability, T/C [23]: 28.1%
- viability, T/C [24]: 21.9%
- viability, T/C [25]: 98.6%
- viability, T/C [26]: 130%
- viability, T/C [27]: 62%
- viability, T/C [28]: 38.3%
- viability, T/C [29]: 27%
- viability, T/C [30]: 18.6%
- viability, T/C [31]: 92%
- viability, T/C [32]: 81%
- viability, T/C [33]: 70.8%
- viability, T/C [34]: 41.4%
- viability, T/C [35]: 26.3%
- viability, T/C [36]: 13.5%

SMILES: COc1cccc(OCCCN)c1-c1cc(Nc2cnc(C#N)cn2)n[nH]1 + Cc1cccc(N(C)C(=O)C2C(O)CCN2c2nc(C)cc(C(F)(F)F)c2C#N)c1
- IC50 (second compound 0.0316 µM): 4.8 nM
- IC50 (second compound 0.1 µM): 5.63 nM
- IC50 (second compound 0.316 µM): 5.68 nM
- IC50 (second compound 1 µM): 5.28 nM
- IC50 (second compound 3.16 µM): 4.83 nM
- IC50 (second compound 10 µM): 5.22 nM
- viability, T/C [37]: 70.3%
- viability, T/C [38]: 14.5%
- viability, T/C [1]: 5.94%
- viability, T/C [2]: 4.36%
- viability, T/C [3]: 4.2%
- viability, T/C [4]: 2.81%
- viability, T/C [39]: 86.8%
- viability, T/C [40]: 13.4%
- viability, T/C [7]: 5.69%
- viability, T/C [8]: 4.81%
- viability, T/C [9]: 4.14%
- viability, T/C [10]: 2.6%
- viability, T/C [41]: 84.9%
- viability, T/C [42]: 16.4%
- viability, T/C [13]: 4.73%
- viability, T/C [14]: 4.19%
- viability, T/C [15]: 4.39%
- viability, T/C [16]: 3.1%
- viability, T/C [43]: 78%
- viability, T/C [44]: 15.3%
- viability, T/C [19]: 5.38%
- viability, T/C [20]: 4.93%
- viability, T/C [21]: 3.71%
- viability, T/C [22]: 3.25%
- viability, T/C [45]: 69.9%
- viability, T/C [46]: 16%
- viability, T/C [25]: 5.86%
- viability, T/C [26]: 5.17%
- viability, T/C [27]: 4.05%
- viability, T/C [28]: 2.85%
- viability, T/C [47]: 76.6%
- viability, T/C [48]: 15.7%
- viability, T/C [31]: 5.87%
- viability, T/C [32]: 4.92%
- viability, T/C [33]: 4.34%
- viability, T/C [34]: 3.21%

SMILES: Cn1ncnc1[C@H]1c2n[nH]c(=O)c3cc(F)cc(c23)N[C@@H]1c1ccc(F)cc1 + Cc1cccc(N(C)C(=O)C2C(O)CCN2c2nc(C)cc(C(F)(F)F)c2C#N)c1
- IC50 (second compound 0.0316 µM): 10.2 nM
- IC50 (second compound 0.1 µM): 17.9 nM
- IC50 (second compound 0.316 µM): 14.2 nM
- IC50 (second compound 1 µM): 6.63 nM
- IC50 (second compound 3.16 µM): 12 nM
- IC50 (second compound 10 µM): 6.59 nM
- viability, T/C (second compound 0.0316 µM, first compound 0.000316 µM): 79.7%
- viability, T/C (second compound 0.0316 µM, first compound 0.001 µM): 88.5%
- viability, T/C [37]: 79%
- viability, T/C [38]: 48.3%
- viability, T/C [1]: 39.4%
- viability, T/C [2]: 25.8%
- viability, T/C (second compound 0.1 µM, first compound 0.000316 µM): 103%
- viability, T/C (second compound 0.1 µM, first compound 0.001 µM): 93.2%
- viability, T/C [39]: 58.9%
- viability, T/C [40]: 69%
- viability, T/C [7]: 39.2%
- viability, T/C [8]: 30%
- viability, T/C (second compound 0.316 µM, first compound 0.000316 µM): 65.8%
- viability, T/C (second compound 0.316 µM, first compound 0.001 µM): 82.8%
- viability, T/C [41]: 85.4%
- viability, T/C [42]: 57.6%
- viability, T/C [13]: 36.8%
- viability, T/C [14]: 28.6%
- viability, T/C (second compound 1 µM, first compound 0.000316 µM): 89.3%
- viability, T/C (second compound 1 µM, first compound 0.001 µM): 97.8%
- viability, T/C [43]: 68.8%
- viability, T/C [44]: 42.5%
- viability, T/C [19]: 46.1%
- viability, T/C [20]: 29.5%
- viability, T/C (second compound 3.16 µM, first compound 0.000316 µM): 99.1%
- viability, T/C (second compound 3.16 µM, first compound 0.001 µM): 80%
- viability, T/C [45]: 72.4%
- viability, T/C [46]: 47.4%
- viability, T/C [25]: 41.3%
- viability, T/C [26]: 28.4%
- viability, T/C (second compound 10 µM, first compound 0.000316 µM): 64.5%
- viability, T/C (second compound 10 µM, first compound 0.001 µM): 86%
- viability, T/C [47]: 54.8%
- viability, T/C [48]: 47.1%
- viability, T/C [31]: 30.4%
- viability, T/C [32]: 29.7%

From PubChem BioAssay AID1963839 (Molecular Pharmacology Branch, DTP, NCI, 2024)
